Reference: BigSolDB 2.1

O=C(O)c1cc([N+](=O)[O-])ccc1O
solubility (mole fraction)
Details	278.15 K	283.15 K	288.15 K	293.15 K	298.15 K	303.15 K	308.15 K	313.15 K	318.15 K	323.15 K
in ethylene glycol	–	–	–	–	–	–	0.0262	0.0308	0.035	0.0393
in isobutanol	0.0125	0.0149	0.0179	0.0211	0.0252	0.0296	0.0343	0.0383	0.043	0.0495
in isopropanol	0.0255	0.0286	0.0322	0.0367	0.0406	0.046	0.052	0.0575	0.0641	0.0728
in methanol	0.0316	0.0345	0.038	0.0427	0.0479	0.0538	0.0596	0.0661	0.0728	0.0807
in n-butanol	0.0173	0.0203	0.0237	0.0275	0.032	0.0368	0.0421	0.0474	0.0533	0.06
in n-propanol	0.0232	0.0266	0.0302	0.0342	0.0387	0.0433	0.0488	0.0537	0.0597	0.0656
in water	3.03e-05	3.95e-05	5.22e-05	6.76e-05	8.62e-05	0.000107	0.000133	0.000165	0.000202	0.000253
